Test system: 596521-263-R-J1-PDC complex spheroid growth
Assay: Anticancer human tumor 596521-263-R-J1-PDC patient-derived soft tissue sarcoma cell line growth inhibition [Asc]
Details: for IC50: curve of first compound; for viability, T/C: stronger effect = lower value
In short: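 Complex solid-tumor spheroids incorporating human endothelial and mesenchymal stem cells received single agents or combinations over half-log dilution ranges anchored to clinical Cmax.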

[1] = second compound 0.0316 µM, first compound 0.0316 µM
[2] = second compound 0.0316 µM, first compound 0.1 µM
[3] = second compound 0.0316 µM, first compound 0.316 µM
[4] = second compound 0.0316 µM, first compound 1 µM
[5] = second compound 0.0316 µM, first compound 3.16 µM
[6] = second compound 0.0316 µM, first compound 10 µM
[7] = second compound 0.1 µM, first compound 0.0316 µM
[8] = second compound 0.1 µM, first compound 0.1 µM
[9] = second compound 0.1 µM, first compound 0.316 µM
[10] = second compound 0.1 µM, first compound 1 µM
[11] = second compound 0.1 µM, first compound 3.16 µM
[12] = second compound 0.1 µM, first compound 10 µM
[13] = second compound 0.316 µM, first compound 0.0316 µM
[14] = second compound 0.316 µM, first compound 0.1 µM
[15] = second compound 0.316 µM, first compound 0.316 µM
[16] = second compound 0.316 µM, first compound 1 µM
[17] = second compound 0.316 µM, first compound 3.16 µM
[18] = second compound 0.316 µM, first compound 10 µM
[19] = second compound 1 µM, first compound 0.0316 µM
[20] = second compound 1 µM, first compound 0.1 µM
[21] = second compound 1 µM, first compound 0.316 µM
[22] = second compound 1 µM, first compound 1 µM
[23] = second compound 1 µM, first compound 3.16 µM
[24] = second compound 1 µM, first compound 10 µM
[25] = second compound 3.16 µM, first compound 0.0316 µM
[26] = second compound 3.16 µM, first compound 0.1 µM
[27] = second compound 3.16 µM, first compound 0.316 µM
[28] = second compound 3.16 µM, first compound 1 µM
[29] = second compound 3.16 µM, first compound 3.16 µM
[30] = second compound 3.16 µM, first compound 10 µM
[31] = second compound 10 µM, first compound 0.0316 µM
[32] = second compound 10 µM, first compound 0.1 µM
[33] = second compound 10 µM, first compound 0.316 µM
[34] = second compound 10 µM, first compound 1 µM
[35] = second compound 10 µM, first compound 3.16 µM
[36] = second compound 10 µM, first compound 10 µM
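Also: spheroids exposed to compounds for 7 days.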

`C=C(F)C(=O)N1CCN(c2nc(OCC3CCCN3C)nc3c2CCN(c2cccc4cccc(Cl)c24)C3)CC1CC#N` (stereo unspecified) + Cc1c(S(C)(=O)=O)c(-c2cc(F)cc(N3CCN(c4ccc(NS(=O)(=O)c5ccc(NC(CCN6CCC(C(=O)OCCCP(=O)(O)O)CC6)CSc6ccccc6)c(S(=O)(=O)C(F)(F)F)c5)cc4)CC3)c2)c(-c2ccc(Cl)cc2)n1C(C)C showed an IC50 (second compound 0.0316 µM) of 4960 nM, an IC50 (second compound 0.1 µM) of 4520 nM and an IC50 (second compound 0.316 µM) of 4250 nM. The IC50 (second compound 1 µM) was 2760 nM, the IC50 (second compound 3.16 µM) was 660 nM and the IC50 (second compound 10 µM) was 326 nM. For the same compound, the viability, T/C [1] was 110%, the viability, T/C [2] was 98.3% and the viability, T/C [3] was 87.6%. For the same compound, the viability, T/C [4] was 101%, the viability, T/C [5] was 81.9% and the viability, T/C [6] was 0.22%. For the same compound, the viability, T/C [7] was 98.4%, the viability, T/C [8] was 97.9% and the viability, T/C [9] was 93.9%. For the same compound, the viability, T/C [10] was 91.1%, the viability, T/C [11] was 72.8% and the viability, T/C [12] was 0.18%. It also gave a viability, T/C [13] of 104%, a viability, T/C [14] of 98% and a viability, T/C [15] of 92.4%. It also gave a viability, T/C [16] of 89.6%, a viability, T/C [17] of 68.2% and a viability, T/C [18] of 0.17%. The viability, T/C [19] was 84.3%, the viability, T/C [20] was 87% and the viability, T/C [21] was 76.7%. It also gave a viability, T/C [22] of 80%, a viability, T/C [23] of 46% and a viability, T/C [24] of 1.18%. It also gave a viability, T/C [25] of 79.5%, a viability, T/C [26] of 67.4% and a viability, T/C [27] of 52.4%. For the same compound, the viability, T/C [28] was 50.5%, the viability, T/C [29] was 26.9% and the viability, T/C [30] was 0.2%. It also gave a viability, T/C [31] of 58.4%, a viability, T/C [32] of 50.1% and a viability, T/C [33] of 48.3%. For the same compound, the viability, T/C [34] was 44.2%, the viability, T/C [35] was 22% and the viability, T/C [36] was 1.02%.
With `C=CC(=O)N1CCN(c2nc(=O)n(-c3c(C)ccnc3C(C)C)c3nc(-c4c(O)cccc4F)c(F)cc23)C(C)C1` (stereo unspecified) + Cc1c(S(C)(=O)=O)c(-c2cc(F)cc(N3CCN(c4ccc(NS(=O)(=O)c5ccc(NC(CCN6CCC(C(=O)OCCCP(=O)(O)O)CC6)CSc6ccccc6)c(S(=O)(=O)C(F)(F)F)c5)cc4)CC3)c2)c(-c2ccc(Cl)cc2)n1C(C)C the IC50 (second compound 0.0316 µM) was over 10000 nM, the IC50 (second compound 0.1 µM) was over 10000 nM and the IC50 (second compound 0.316 µM) was over 10000 nM. The IC50 (second compound 1 µM) was 6360 nM, the IC50 (second compound 3.16 µM) was 2980 nM and the IC50 (second compound 10 µM) was 1350 nM. For the same compound, the viability, T/C [1] was 83.2%, the viability, T/C [2] was 84.6% and the viability, T/C [3] was 95%. For the same compound, the viability, T/C [4] was 98.9%, the viability, T/C [5] was 94.9% and the viability, T/C [6] was 65.8%. The viability, T/C [7] was 87.3%, the viability, T/C [8] was 93.9% and the viability, T/C [9] was 93.6%. It also gave a viability, T/C [10] of 107%, a viability, T/C [11] of 95.8% and a viability, T/C [12] of 63%. For the same compound, the viability, T/C [13] was 83.7%, the viability, T/C [14] was 82.5% and the viability, T/C [15] was 80.1%. The viability, T/C [16] was 99.9%, the viability, T/C [17] was 87.1% and the viability, T/C [18] was 59.9%. It also gave a viability, T/C [19] of 82.3%, a viability, T/C [20] of 75.9% and a viability, T/C [21] of 81%. The viability, T/C [22] was 73.5%, the viability, T/C [23] was 70.5% and the viability, T/C [24] was 37.1%. The viability, T/C [25] was 66.6%, the viability, T/C [26] was 63% and the viability, T/C [27] was 62.6%. It also gave a viability, T/C [28] of 63.4%, a viability, T/C [29] of 49.3% and a viability, T/C [30] of 36%. For the same compound, the viability, T/C [31] was 55.9%, the viability, T/C [32] was 53% and the viability, T/C [33] was 60.1%. For the same compound, the viability, T/C [34] was 52.4%, the viability, T/C [35] was 40.8% and the viability, T/C [36] was 30.6%.
With `CCN1C(C(=O)NC23CCC(C(=O)O)(CC2)CC3)C(c2cccc(Cl)c2F)C2(C(=O)Nc3cc(Cl)ccc32)C12CCCCC2` (stereo unspecified) + Cc1c(S(C)(=O)=O)c(-c2cc(F)cc(N3CCN(c4ccc(NS(=O)(=O)c5ccc(NC(CCN6CCC(C(=O)OCCCP(=O)(O)O)CC6)CSc6ccccc6)c(S(=O)(=O)C(F)(F)F)c5)cc4)CC3)c2)c(-c2ccc(Cl)cc2)n1C(C)C the IC50 (second compound 0.0316 µM) was over 3000 nM, the IC50 (second compound 0.1 µM) was over 3000 nM and the IC50 (second compound 0.316 µM) was over 3000 nM. The IC50 (second compound 1 µM) was 2380 nM, the IC50 (second compound 3.16 µM) was 459 nM and the IC50 (second compound 10 µM) was 133 nM. The viability, T/C (second compound 0.0316 µM, first compound 0.00949 µM) was 94.6%, the viability, T/C (second compound 0.0316 µM, first compound 0.03 µM) was 97.5% and the viability, T/C (second compound 0.0316 µM, first compound 0.0949 µM) was 94.3%. It also gave a viability, T/C (second compound 0.0316 µM, first compound 0.3 µM) of 90.8%, a viability, T/C (second compound 0.0316 µM, first compound 0.949 µM) of 87.5% and a viability, T/C (second compound 0.0316 µM, first compound 3 µM) of 80.7%. For the same compound, the viability, T/C (second compound 0.1 µM, first compound 0.00949 µM) was 89.5%, the viability, T/C (second compound 0.1 µM, first compound 0.03 µM) was 94.8% and the viability, T/C (second compound 0.1 µM, first compound 0.0949 µM) was 95.9%. It also gave a viability, T/C (second compound 0.1 µM, first compound 0.3 µM) of 112%, a viability, T/C (second compound 0.1 µM, first compound 0.949 µM) of 87.7% and a viability, T/C (second compound 0.1 µM, first compound 3 µM) of 73.4%. It also gave a viability, T/C (second compound 0.316 µM, first compound 0.00949 µM) of 98.7%, a viability, T/C (second compound 0.316 µM, first compound 0.03 µM) of 92.4% and a viability, T/C (second compound 0.316 µM, first compound 0.0949 µM) of 84.7%. The viability, T/C (second compound 0.316 µM, first compound 0.3 µM) was 97.1%, the viability, T/C (second compound 0.316 µM, first compound 0.949 µM) was 83% and the viability, T/C (second compound 0.316 µM, first compound 3 µM) was 54.1%. The viability, T/C (second compound 1 µM, first compound 0.00949 µM) was 88.6%, the viability, T/C (second compound 1 µM, first compound 0.03 µM) was 76% and the viability, T/C (second compound 1 µM, first compound 0.0949 µM) was 67.2%. It also gave a viability, T/C (second compound 1 µM, first compound 0.3 µM) of 83.1%, a viability, T/C (second compound 1 µM, first compound 0.949 µM) of 62.7% and a viability, T/C (second compound 1 µM, first compound 3 µM) of 46.1%. The viability, T/C (second compound 3.16 µM, first compound 0.00949 µM) was 64.5%, the viability, T/C (second compound 3.16 µM, first compound 0.03 µM) was 71% and the viability, T/C (second compound 3.16 µM, first compound 0.0949 µM) was 54.8%. It also gave a viability, T/C (second compound 3.16 µM, first compound 0.3 µM) of 57.1%, a viability, T/C (second compound 3.16 µM, first compound 0.949 µM) of 42.2% and a viability, T/C (second compound 3.16 µM, first compound 3 µM) of 24.2%. For the same compound, the viability, T/C (second compound 10 µM, first compound 0.00949 µM) was 50.8%, the viability, T/C (second compound 10 µM, first compound 0.03 µM) was 53% and the viability, T/C (second compound 10 µM, first compound 0.0949 µM) was 51.7%. For the same compound, the viability, T/C (second compound 10 µM, first compound 0.3 µM) was 46.8%, the viability, T/C (second compound 10 µM, first compound 0.949 µM) was 33.8% and the viability, T/C (second compound 10 µM, first compound 3 µM) was 18.8%.

Source: PubChem BioAssay AID1963449 (Molecular Pharmacology Branch, DTP, NCI, 2024)
